Data published in patent US11795181B2, “Basic copper gluconate” (JOST CHEMICAL CO., priority 2020, dated 2023).

How the values were obtained:
[1] = background statement; cited from earlier work
[2] = Aqueous solubility; format: physicochemical; conditions: in water
Description: However, at higher concentrations (i.e., 30% and above), solutions are prone to secondary redox reactions if left to sit for prolonged periods in the open air. Copper (II) slowly oxidizes gluconic acid producing a red precipitate of cuprous oxide (Cu2O). […] This is less evident in the 25% solution of basic copper gluconate than in the remaining, higher percentage, solutions.

Row | Structure (SMILES) | aqueous solubility (in words) [1] | water solubility [2]
1 | O=C([O-])[C@H](O)[C@@H](O)[C@H](O)[C@H](O)CO.O=C([O-])[C@H](O)[C@@H](O)[C@H](O)[C@H](O)CO.[Cu+2] [copper gluconate, Copper gluconate] | excellent aqueous solubility | –
2 | O=C([O][Cu][OH])C(O)C(O)C(O)C(O)CO (centres unmarked) [Basic copper gluconate] | – | over 50 g/100 g water
